Columns and labels:
Type in all cases: cell-based
[1] = tested on: MDA-MB-361-DYT2 (breast cancer) cells, Her2-target expressing; assay: In vitro cell assay, cell viability by MTS, MDA-MB-361-DYT2; conditions: 96 h, read-out: Average IC50, MDA-MB-361-DYT2
Procedure: (§1) Her2-Target expressing (BT474 (breast cancer), N87 (gastric cancer), MDA-MB-361-DYT2 (breast cancer)) or Her2-non-expressing (MDA-MB-468, HT29) cells, or 0033-target expressing HL60, HEL92.1.7, NB4, TF-1 or 0033-non-expressing (Raji) cells were seeded in 96-well cell culture plates for 24 hours before treatment. Cells were treated with 3-fold serially diluted antibody-drug conjugates or free compounds (i.e., no antibody conjugated to the drug) in duplicate at 10 concentrations. Cell viability was determined by CellTiter 96® AQueous One Solution Cell Proliferation MTS Assay (Promega, Madison WI) 96 hours after treatment. Relative cell viability was determined as percentage of untreated control. IC50 values were calculated using a four parameter logistic model #203 with XLfit v4.2 (IDBS, Guildford, Surry, UK). Results are shown below in Table 3 (for payloads), Table 4 (for Herceptin conjugates), and Table 5 (for CD33 conjugates).

[2] = tested on: N87 (gastric cancer) cells, Her2-target expressing; assay: In vitro cell assay, cell viability by MTS, N87; conditions: 96 h, read-out: Average IC50, N87
Procedure: as §1

[3] = tested on: HT29 cells, Her2-non-expressing; assay: In vitro cell assay, cell viability by MTS, HT29; conditions: Homo sapiens, HT-29, 96 h, read-out: Average IC50, HT29
Procedure: as §1

[4] = tested on: TF-1 cells, CD33-target expressing; assay: In vitro cell assay, cell viability by MTS, TF-1; conditions: Homo sapiens, TF-1, 96 h, read-out: Average IC50, TF-1
Procedure: as §1

[5] = tested on: HL60 cells, CD33-target expressing; assay: In vitro cell assay, cell viability by MTS, HL60; conditions: Homo sapiens, HL-60, 96 h, read-out: Average IC50, HL-60
Procedure: as §1

[6] = tested on: Raji cells, CD33-non-expressing; assay: In vitro cell assay, cell viability by MTS, Raji; conditions: Homo sapiens, 96 h, read-out: Average IC50, Raji
Procedure: as §1

SMILES | IC50 [1] | IC50 [2] | IC50 [3] | IC50 [4] | IC50 [5] | IC50 [6]
CCN[C@H]1CO[C@@H](O[C@H]2[C@H](O[C@H]3C#C/C=C\C#C[C@]4(O)CC(=O)C(NC(=O)OC)=C3/C4=C\CSSC(C)C(=O)O)O[C@H](C)[C@@H](NO[C@H]3C[C@H](O)[C@H](SC(=O)c4c(C)c(I)c(O[C@@H]5O[C@@H](C)[C@H](O)[C@@H](OC)[C@H]5O)c(OC)c4OC)[C@@H](C)O3)[C@@H]2O)C[C@@H]1OC (mixture of isomers) [Example P9] | 1.89 nM | 0.392 nM | 0.334 nM |  |  | 
CCNC1COC(OC2C(OC3C#C/C=C\C#C[C@]4(O)CC(=O)C(NC(=O)OC)=C3/C4=C\CSSC3CC3)OC(C)C(NOC3CC(O)C(SC(=O)c4c(C)c(I)c(OC5OC(C)C(O)C(OC)C5O)c(OC)c4OC)C(C)O3)C2O)CC1OC (stereo in doubt) [Example P18] | 0.017 nM | 0.033 nM | 0.005 nM | 0.093 nM | 0.005 nM | 0.003 nM
CCNC1COC(OC2C(OC3C#C/C=C\C#C[C@]4(O)CC(=O)C(NC(=O)OC)=C3/C4=C\CSSC3CCCC3)OC(C)C(NOC3CC(O)C(SC(=O)c4c(C)c(I)c(OC5OC(C)C(O)C(OC)C5O)c(OC)c4OC)C(C)O3)C2O)CC1OC (stereo in doubt) [Example P20] | 0.005 nM | 0.004 nM | 0.002 nM |  |  | 
CCNC1COC(OC2C(OC3C#C/C=C\C#C[C@]4(O)CC(=O)C(NC(=O)OC)=C3/C4=C\CSSC3CCCCC3)OC(C)C(NOC3CC(O)C(SC(=O)c4c(C)c(I)c(OC5OC(C)C(O)C(OC)C5O)c(OC)c4OC)C(C)O3)C2O)CC1OC (stereo in doubt) [Example P21] | 0.064 nM | 0.013 nM | 0.012 nM |  |  | 
CCN[C@H]1CO[C@@H](O[C@@H]2C(O)[C@H](NO[C@H]3C[C@H](O)[C@H](SC(=O)c4c(C)c(I)c(O[C@@H]5O[C@@H](C)[C@H](O)[C@@H](OC)[C@H]5O)c(OC)c4OC)[C@@H](C)O3)[C@@H](C)O[C@H]2O[C@H]2C#C/C=C\C#C[C@]3(O)CC(=O)C(NC(=O)OC)=C2/C3=C\CSSc2ccncc2)C[C@@H]1OC (stereo in doubt) [Example P44] | > 10 nM | 0.418 nM | 1.26 nM | 1.48 nM | 0.127 nM | 0.171 nM
CCN[C@H]1CO[C@@H](O[C@H]2[C@H](O[C@H]3C#C/C=C\C#C[C@]4(O)CC(=O)C(NC(=O)OC)=C3/C4=C\CSSC(C)(C)CCN)O[C@H](C)[C@@H](NO[C@H]3C[C@H](O)[C@H](SC(=O)c4c(C)c(I)c(O[C@@H]5O[C@@H](C)[C@H](O)[C@@H](OC)[C@H]5O)c(OC)c4OC)[C@@H](C)O3)[C@@H]2O)C[C@@H]1OC [Example P8] | 0.063 nM | 0.804 nM | 0.07 nM | 0.36 nM | 0.081 nM | 0.028 nM
CCN[C@H]1CO[C@@H](O[C@H]2[C@H](O[C@H]3C#C/C=C\C#C[C@]4(O)CC(=O)C(NC(=O)OC)=C3/C4=C\CSSC[C@H](NC(=O)CC[C@H](N)C(=O)O)C(=O)NCC(=O)O)O[C@H](C)[C@@H](NO[C@H]3C[C@H](O)[C@H](SC(=O)c4c(C)c(I)c(O[C@@H]5O[C@@H](C)[C@H](O)[C@@H](OC)[C@H]5O)c(OC)c4OC)[C@@H](C)O3)[C@@H]2O)C[C@@H]1OC [Example P14] | 15.6 nM | 2.73 nM | 2.22 nM |  |  | 
CCN[C@H]1CO[C@@H](O[C@H]2[C@H](O[C@H]3C#C/C=C\C#C[C@]4(O)CC(=O)C(NC(=O)OC)=C3/C4=C\CSSC3CCN(C)CC3)O[C@H](C)[C@@H](NO[C@H]3C[C@H](O)[C@H](SC(=O)c4c(C)c(I)c(O[C@@H]5O[C@@H](C)[C@H](O)[C@@H](OC)[C@H]5O)c(OC)c4OC)[C@@H](C)O3)[C@@H]2O)C[C@@H]1OC [Example P15] | 0.077 nM | 0.077 nM | 0.12 nM |  |  | 
CCN[C@H]1CO[C@@H](O[C@H]2[C@H](O[C@H]3C#C/C=C\C#C[C@]4(O)CC(=O)C(NC(=O)OC)=C3/C4=C\CSSC3CCN(C(=O)OC(C)(C)C)CC3)O[C@H](C)[C@@H](NO[C@H]3C[C@H](O)[C@H](SC(=O)c4c(C)c(I)c(O[C@@H]5O[C@@H](C)[C@H](O)[C@@H](OC)[C@H]5O)c(OC)c4OC)[C@@H](C)O3)[C@@H]2O)C[C@@H]1OC [Example P17] | 0.152 nM | 2.38 nM | 0.501 nM |  |  | 
CCN[C@H]1CO[C@@H](O[C@H]2[C@H](O[C@H]3C#CC=CC#C[C@]4(O)CC(=O)C(NC(=O)OC)=C3/C4=C\CSSC3CCC3)O[C@H](C)[C@@H](NO[C@H]3C[C@H](O)[C@H](SC(=O)c4c(C)c(I)c(O[C@@H]5O[C@@H](C)[C@H](O)[C@@H](OC)[C@H]5O)c(OC)c4OC)[C@@H](C)O3)[C@@H]2O)C[C@@H]1OC [Example P19] | 0.005 nM | 0.005 nM | 0.004 nM |  |  | 
CCN[C@H]1CO[C@@H](O[C@H]2[C@H](O[C@H]3C#C/C=C\C#C[C@]4(O)CC(=O)C(NC(=O)OC)=C3/C4=C\CSSC34CC5CC(CC(C5)C3)C4)O[C@H](C)[C@@H](NO[C@H]3C[C@H](O)[C@H](SC(=O)c4c(C)c(I)c(O[C@@H]5O[C@@H](C)[C@H](O)[C@@H](OC)[C@H]5O)c(OC)c4OC)[C@@H](C)O3)[C@@H]2O)C[C@@H]1OC [Example P22] | 0.044 nM | 0.015 nM | 0.009 nM |  |  | 
CCN[C@H]1CO[C@@H](O[C@H]2[C@H](O[C@H]3C#C/C=C\C#C[C@]4(O)CC(=O)C(NC(=O)OC)=C3/C4=C\CSSC(C)(C)C#N)O[C@H](C)[C@@H](NO[C@H]3C[C@H](O)[C@H](SC(=O)c4c(C)c(I)c(O[C@@H]5O[C@@H](C)[C@H](O)[C@@H](OC)[C@H]5O)c(OC)c4OC)[C@@H](C)O3)[C@@H]2O)C[C@@H]1OC [Example P23] | 0.007 nM | 0.005 nM | 0.012 nM |  |  | 
CCN[C@H]1CO[C@@H](O[C@H]2[C@H](O[C@H]3C#C/C=C\C#C[C@]4(O)CC(=O)C(NC(=O)OC)=C3/C4=C\CSSC(C)(C)c3cccnc3N)O[C@H](C)[C@@H](NO[C@H]3C[C@H](O)[C@H](SC(=O)c4c(C)c(I)c(O[C@@H]5O[C@@H](C)[C@H](O)[C@@H](OC)[C@H]5O)c(OC)c4OC)[C@@H](C)O3)[C@@H]2O)C[C@@H]1OC [Example P26] | 0.017 nM | 0.035 nM | 0.004 nM | 0.036 nM | 0.002 nM | 0.004 nM
CCN[C@H]1CO[C@@H](O[C@H]2[C@H](O[C@H]3C#C/C=C\C#C[C@]4(O)CC(=O)C(NC(=O)OC)=C3/C4=C\CSSC(C)(C)c3ccc(N)cc3)O[C@H](C)[C@@H](NO[C@H]3C[C@H](O)[C@H](SC(=O)c4c(C)c(I)c(O[C@@H]5O[C@@H](C)[C@H](O)[C@@H](OC)[C@H]5O)c(OC)c4OC)[C@@H](C)O3)[C@@H]2O)C[C@@H]1OC [Example P27] | 0.003 nM | 0.04 nM | 0.006 nM | 0.02 nM | 0.004 nM | 0.002 nM
CCN[C@H]1CO[C@@H](O[C@H]2[C@H](O[C@H]3C#C/C=C\C#C[C@]4(O)CC(=O)C(NC(=O)OC)=C3/C4=C\CSSC(C)(C)c3ccc(C(=O)O)cc3)O[C@H](C)[C@@H](NO[C@H]3C[C@H](O)[C@H](SC(=O)c4c(C)c(I)c(O[C@@H]5O[C@@H](C)[C@H](O)[C@@H](OC)[C@H]5O)c(OC)c4OC)[C@@H](C)O3)[C@@H]2O)C[C@@H]1OC [Example P29] | 0.025 nM | 0.17 nM | 0.036 nM | 0.466 nM | 0.025 nM | 0.015 nM
CCN[C@H]1CO[C@@H](O[C@H]2[C@H](O[C@H]3C#C/C=C\C#C[C@]4(O)CC(=O)C(NC(=O)OC)=C3/C4=C\CSSC(C)(C)CC(N)=O)O[C@H](C)[C@@H](NO[C@H]3C[C@H](O)[C@H](SC(=O)c4c(C)c(I)c(O[C@@H]5O[C@@H](C)[C@H](O)[C@@H](OC)[C@H]5O)c(OC)c4OC)[C@@H](C)O3)[C@@H]2O)C[C@@H]1OC [Example P30] | 0.049 nM | 0.308 nM | 0.057 nM | 0.112 nM | 0.049 nM | 0.03 nM
CCN[C@H]1CO[C@@H](O[C@H]2[C@H](O[C@H]3C#C/C=C\C#C[C@]4(O)CC(=O)C(NC(=O)OC)=C3/C4=C\CSSC(C)(C)CC(=O)N(C)C)O[C@H](C)[C@@H](NO[C@H]3C[C@H](O)[C@H](SC(=O)c4c(C)c(I)c(O[C@@H]5O[C@@H](C)[C@H](O)[C@@H](OC)[C@H]5O)c(OC)c4OC)[C@@H](C)O3)[C@@H]2O)C[C@@H]1OC [Example P31] | 0.032 nM | 0.051 nM | 0.01 nM | 0.084 nM | 0.011 nM | 0.008 nM
CCN[C@H]1CO[C@@H](O[C@H]2[C@H](O[C@H]3C#C/C=C\C#C[C@]4(O)CC(=O)C(NC(=O)OC)=C3/C4=C\CSSC(C)(C)CC(=O)O)O[C@H](C)[C@@H](NO[C@H]3C[C@H](O)[C@H](SC(=O)c4c(C)c(I)c(O[C@@H]5O[C@@H](C)[C@H](O)[C@@H](OC)[C@H]5O)c(OC)c4OC)[C@@H](C)O3)[C@@H]2O)C[C@@H]1OC [Example P32] | 0.013 nM | 0.015 nM | 0.004 nM | 0.038 nM | 0.003 nM | 0.004 nM

From patent publication US20240409573A1, “CALICHEAMICIN DERIVATIVES AND ANTIBODY DRUG CONJUGATES THEREOF” (priority 2017, published 2024)
